Data published in ChEMBL document CHEMBL5725727, “Substituted nicotinamide derivatives as kinase inhibitors” (2017).
pIC50: −log10 of the molar value.

Target: Platelet-derived growth factor receptor beta (Homo sapiens, UniProt P09619)
Assay: PDGFRβ Kinase Assay: Biochemical PDGFRβ kinase assays were performed in 96 well microtiter plates that were coated overnight with 75 μg of poly-Glu-Tyr (4:1) in 10 mM Phosphate Buffered Saline (PBS), pH 7.4. The coated plates were washed with 2 mls per well PBS+0.05% Tween-20 (PBS-T), blocked by incubation with PBS containing 1% BSA, then washed with 2 mls per well PBS-T prior to starting the reaction. Reactions were carried out in 100 μL reaction volumes containing 36 μM ATP in kinase buffer (50 mM Hepes buffer pH 7.4, 20 mM MgCl2, 0.1 mM MnCl2 and 0.2 mM Na3VO4). Test compounds were reconstituted in 100% DMSO and added to the reaction to give a final DMSO concentration of 5%. Reactions were initiated by the addition 20 ul per well of kinase buffer containing 200-300 ng purified cytoplasmic domain PDGFR-b protein (Millipore). Following a 60 minute incubation at 30° C., the reactions were washed 2 mls per well PBS-T. 100 μl of a monoclonal anti-phosphotyrosine antibody-peroxidase conjugate diluted 1:10,000 in PBS-T was added to the wells for 30 minutes. Following a 2 mls per well wash with PBS-Tween-20, 100 μl of O-Phenylenediamine Dihydrochloride in phosphate-citrate buffer, containing urea hydrogen peroxide, was added to the wells for 7-10 minutes as a colorimetric substrate for the peroxidase. […]

Platelet-derived growth factor receptor beta, sequence (P09619 whole entry, the tested form may be a part): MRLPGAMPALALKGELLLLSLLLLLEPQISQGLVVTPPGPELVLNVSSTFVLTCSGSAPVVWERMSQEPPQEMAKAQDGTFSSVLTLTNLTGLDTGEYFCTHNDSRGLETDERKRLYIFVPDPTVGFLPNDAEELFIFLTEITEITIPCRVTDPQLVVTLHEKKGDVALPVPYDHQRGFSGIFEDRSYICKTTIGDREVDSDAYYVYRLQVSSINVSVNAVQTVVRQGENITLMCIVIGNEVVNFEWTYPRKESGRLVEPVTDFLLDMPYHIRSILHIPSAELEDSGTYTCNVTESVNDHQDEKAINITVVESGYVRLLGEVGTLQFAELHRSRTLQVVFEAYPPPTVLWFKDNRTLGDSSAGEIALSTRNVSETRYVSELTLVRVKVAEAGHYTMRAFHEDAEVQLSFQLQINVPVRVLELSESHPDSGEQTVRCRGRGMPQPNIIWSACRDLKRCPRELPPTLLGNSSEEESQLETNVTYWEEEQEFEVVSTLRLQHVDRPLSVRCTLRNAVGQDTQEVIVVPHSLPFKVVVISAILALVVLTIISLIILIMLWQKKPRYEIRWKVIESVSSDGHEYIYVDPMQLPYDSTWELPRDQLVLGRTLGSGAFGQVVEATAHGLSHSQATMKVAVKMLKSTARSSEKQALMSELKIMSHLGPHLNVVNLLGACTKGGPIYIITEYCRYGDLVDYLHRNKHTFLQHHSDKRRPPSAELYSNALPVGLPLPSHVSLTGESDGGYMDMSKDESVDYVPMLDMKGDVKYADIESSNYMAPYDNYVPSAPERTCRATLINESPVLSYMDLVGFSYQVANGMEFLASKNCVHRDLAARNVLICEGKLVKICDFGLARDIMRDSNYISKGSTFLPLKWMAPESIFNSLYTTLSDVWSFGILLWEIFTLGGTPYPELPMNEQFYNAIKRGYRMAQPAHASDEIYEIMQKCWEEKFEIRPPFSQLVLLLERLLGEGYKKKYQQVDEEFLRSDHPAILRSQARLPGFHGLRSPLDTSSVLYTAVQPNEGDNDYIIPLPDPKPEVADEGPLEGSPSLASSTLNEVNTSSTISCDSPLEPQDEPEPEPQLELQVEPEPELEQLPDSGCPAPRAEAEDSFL

pIC50: 7.96
SMILES: Cc1ccc(F)c(NC(=O)c2cccc(C#Cc3cc(C(=O)N=S4(=O)CCOCC4)cnc3N)c2)c1
